Test results: ChEMBL document CHEMBL3217615, “Novel 3,5-bis(arylidiene)-4-piperidone based monocarbonyl analogs of curcumin: anticancer activity evaluation and mode of action study” (2014)

Tests used:
Type in all cases: functional
[1] = tested on: COLO 205; experiment: Induction of apoptosis in human COLO205 cells assessed as caspase 3/7 activation at 10 uM by FLICA
[2] = tested on: U-251; experiment: Growth inhibition of human U251 cells assessed as cell growth at 10^-6 M after 48 hrs by sulforhodamine B assay; details: U-251, 48 h, read-out: Activity
[3] = tested on: COLO 205; experiment: Growth inhibition of human COLO205 cells assessed as cell growth at 10^-6 M after 48 hrs by sulforhodamine B assay; details: COLO 205, 48 h, read-out: Activity
[4] = tested on: NCI-H322M; experiment: Growth inhibition of human NCI-H322M cells assessed as cell growth at 10^-6 M after 48 hrs by sulforhodamine B assay; details: read-out: Activity
[5] = Growth inhibition of human HOP92 cells assessed as cell growth at 10^-6 M after 48 hrs by sulforhodamine B assay; details: HOP-92, 48 h, read-out: Activity
[6] = Growth inhibition of human MOLT4 cells assessed as cell growth at 10^-6 M after 48 hrs by sulforhodamine B assay; details: MOLT-4, 48 h, read-out: Activity
[7] = tested on: MDA-MB-231; experiment: Growth inhibition of human MDA-MB-231 cells assessed as cell growth at 10^-7 M after 48 hrs by sulforhodamine B assay; details: MDA-MB-231, 48 h, read-out: Activity
[8] = tested on: CAKI-1; experiment: Growth inhibition of human CAKI-1 cells assessed as cell growth at 10^-7 M after 48 hrs by sulforhodamine B assay; details: CAKI-1, 48 h, read-out: Activity
[9] = tested on: 786-0; experiment: Growth inhibition of human 786-0 cells assessed as cell growth at 10^-7 M after 48 hrs by sulforhodamine B assay; details: 786-0, 48 h, read-out: Activity
[10] = tested on: MCF7; experiment: Growth inhibition of human MCF7 cells assessed as cell growth at 10^-6 M after 48 hrs by sulforhodamine B assay; details: MCF7, 48 h, read-out: Activity
[11] = tested on: IGROV-1; experiment: Growth inhibition of human IGROV1 cells assessed as cell growth at 10^-4 M after 48 hrs by sulforhodamine B assay; details: IGROV-1, 48 h, read-out: Activity
[12] = tested on: M14; experiment: Growth inhibition of human M14 cells assessed as cell growth at 10^-4 M after 48 hrs by sulforhodamine B assay; details: M14, 48 h, read-out: Activity
[13] = Growth inhibition of human SF539 cells assessed as cell growth at 10^-4 M after 48 hrs by sulforhodamine B assay; details: SF-539, 48 h, read-out: Activity
[14] = tested on: KM12; experiment: Growth inhibition of human KM12 cells assessed as cell growth at 10^-4 M after 48 hrs by sulforhodamine B assay; details: KM12, 48 h, read-out: Activity
[15] = Growth inhibition of human HCT15 cells assessed as cell growth at 10^-4 M after 48 hrs by sulforhodamine B assay; details: HCT-15, 48 h, read-out: Activity
[16] = tested on: COLO 205; experiment: Growth inhibition of human COLO205 cells assessed as cell growth at 10^-4 M after 48 hrs by sulforhodamine B assay; details: COLO 205, 48 h, read-out: Activity
[17] = tested on: NCI-H322M; experiment: Growth inhibition of human NCI-H322M cells assessed as cell growth at 10^-4 M after 48 hrs by sulforhodamine B assay; details: read-out: Activity
[18] = tested on: NCI-H226; experiment: Growth inhibition of human NCI-H226 cells assessed as cell growth at 10^-4 M after 48 hrs by sulforhodamine B assay; details: NCI-H226, 48 h, read-out: Activity
[19] = Growth inhibition of human MOLT4 cells assessed as cell growth at 10^-4 M after 48 hrs by sulforhodamine B assay; details: MOLT-4, 48 h, read-out: Activity
[20] = tested on: SK-MEL-5; experiment: Growth inhibition of human SK-MEL-5 cells assessed as cell growth at 10^-8 M after 48 hrs by sulforhodamine B assay; details: SK-MEL-5, 48 h; for growth at 0.01 µM: read-out: Activity; for CC50: read-out: pLC50 (the source's name) (converted); for TGI: read-out: pTGI (converted)
[21] = tested on: SK-MEL-28; experiment: Growth inhibition of human SK-MEL-28 cells assessed as cell growth at 10^-8 M after 48 hrs by sulforhodamine B assay; details: SK-MEL-28, 48 h; for growth at 0.01 µM: read-out: Activity; for CC50: read-out: pLC50 (the source's name) (converted); for TGI: read-out: pTGI (converted)
[22] = tested on: SNB-75; experiment: Growth inhibition of human SNB75 cells assessed as cell growth at 10^-8 M after 48 hrs by sulforhodamine B assay; details: SNB-75, 48 h; for growth at 0.01 µM: read-out: Activity; for TGI: read-out: pTGI (converted)
[23] = tested on: KM12; experiment: Growth inhibition of human KM12 cells assessed as cell growth at 10^-8 M after 48 hrs by sulforhodamine B assay; details: KM12, 48 h; for growth at 0.01 µM: read-out: Activity; for TGI: read-out: pTGI (converted)
[24] = Growth inhibition of human HCC2998 cells assessed as cell growth at 10^-8 M after 48 hrs by sulforhodamine B assay; details: HCC 2998, 48 h; for growth at 0.01 µM: read-out: Activity; for CC50: read-out: pLC50 (the source's name) (converted); for TGI: read-out: pTGI (converted)
[25] = tested on: RPMI-8226; experiment: Growth inhibition of human RPMI8226 cells assessed as cell growth at 10^-8 M after 48 hrs by sulforhodamine B assay; details: RPMI-8226, 48 h; for growth at 0.01 µM: read-out: Activity; for CC50: read-out: pLC50 (the source's name) (converted); for TGI: read-out: pTGI (converted)
[26] = tested on: K562; experiment: Growth inhibition of human K562 cells assessed as cell growth at 10^-8 M after 48 hrs by sulforhodamine B assay; details: K562, 48 h; for growth at 0.01 µM: read-out: Activity; for CC50: read-out: pLC50 (the source's name) (converted); for TGI: read-out: pTGI (converted)
[27] = Growth inhibition of human UO31 cells after 48 hrs by sulforhodamine B assay; details: UO-31, 48 h; for CC50: read-out: LC50 (the source's name)
[28] = tested on: NCI-H322M; experiment: Growth inhibition of human NCI-H322M cells after 48 hrs by sulforhodamine B assay; details: for CC50: read-out: LC50 (the source's name)
[29] = tested on: A549; experiment: Growth inhibition of human A549/ATCC cells after 48 hrs by sulforhodamine B assay; details: A549, 48 h; for CC50: read-out: LC50 (the source's name)
[30] = tested on: MDA-MB-435; experiment: Growth inhibition of human MDA-MB-435 cells assessed as cell growth at 10^-7 M after 48 hrs by sulforhodamine B assay; details: MDA-MB-435, 48 h, read-out: Activity
[31] = tested on: KM12; experiment: Growth inhibition of human KM12 cells assessed as cell growth at 10^-7 M after 48 hrs by sulforhodamine B assay; details: KM12, 48 h, read-out: Activity
[32] = tested on: NCI-H226; experiment: Growth inhibition of human NCI-H226 cells assessed as cell growth at 10^-7 M after 48 hrs by sulforhodamine B assay; details: NCI-H226, 48 h, read-out: Activity
[33] = tested on: IGROV-1; experiment: Growth inhibition of human IGROV1 cells assessed as cell growth at 10^-8 M after 48 hrs by sulforhodamine B assay; details: IGROV-1, 48 h; for growth at 0.01 µM: read-out: Activity; for TGI: read-out: pTGI (converted)

## O=C1/C(=C/c2ccc(Cl)cc2Cl)CN(S(=O)(=O)c2ccccc2)C/C1=C\c1ccc(Cl)cc1Cl
[1]
  Activity: 35.5%
[2]
  growth at 1 µM: -64%
[3]
  growth at 1 µM: 16%
[4]
  growth at 1 µM: 35%
[5]
  growth at 1 µM: 72%
[6]
  growth at 1 µM: 34%
[7]
  growth at 0.1 µM: 99%
[8]
  growth at 0.1 µM: 92%
[9]
  growth at 0.1 µM: 104%
[10]
  growth at 1 µM: 14%
[11]
  growth at 100 µM: -47%
[12]
  growth at 100 µM: 31%
[13]
  growth at 100 µM: -40%
[14]
  growth at 100 µM: -56%
[15]
  growth at 100 µM: -36%
[16]
  growth at 100 µM: -25%
[17]
  growth at 100 µM: -11%
[18]
  growth at 100 µM: -55%
[19]
  growth at 100 µM: -11%
[20]
  growth at 0.01 µM: 94%
  CC50: > 100 µM
  TGI: > 100 µM
[21]
  GI50: 4.47 µM
  growth at 0.01 µM: 97%
  CC50: > 100 µM
  TGI: > 100 µM
[22]
  GI50: 0.437 µM
  LC50: > 100 µM
  growth at 0.01 µM: 79%
  TGI: 7.24 µM
[23]
  GI50: 0.257 µM
  LC50: 25.7 µM
  growth at 0.01 µM: 100%
  TGI: 0.603 µM
[24]
  GI50: 0.38 µM
  growth at 0.01 µM: 102%
  CC50: 4.57 µM
  TGI: 1.35 µM
[25]
  GI50: 0.224 µM
  growth at 0.01 µM: 104%
  CC50: > 100 µM
  TGI: 0.603 µM
[26]
  GI50: 0.347 µM
  growth at 0.01 µM: 102%
  CC50: > 100 µM
  TGI: > 100 µM
[27]
  GI50: 0.236 µM
  TGI: 0.639 µM
  CC50: 4.75 µM
[28]
  GI50: 0.68 µM
  TGI: 3.56 µM
  CC50: > 100 µM
[29]
  GI50: 0.277 µM
  TGI: 0.887 µM
  CC50: > 100 µM
[30]
  growth at 0.1 µM: 88%
[31]
  growth at 0.1 µM: 105%
[32]
  growth at 0.1 µM: 97%
[33]
  GI50: 0.316 µM
  LC50: > 100 µM
  growth at 0.01 µM: 116%
  TGI: 0.646 µM

## Cc1ccc(S(=O)(=O)N2C/C(=C\c3cc(F)cc(F)c3)C(=O)/C(=C/c3cc(F)cc(F)c3)C2)cc1
[1]
  Activity: 41.5%
[2]
  growth at 1 µM: -31%
[3]
  growth at 1 µM: 35%
[4]
  growth at 1 µM: 101%
[5]
  growth at 1 µM: 55%
[6]
  growth at 1 µM: 8%
[7]
  growth at 0.1 µM: 97%
[8]
  growth at 0.1 µM: 94%
[9]
  growth at 0.1 µM: 104%
[10]
  growth at 1 µM: 12%
[11]
  growth at 100 µM: -80%
[12]
  growth at 100 µM: -86%
[13]
  growth at 100 µM: -94%
[14]
  growth at 100 µM: -88%
[15]
  growth at 100 µM: -65%
[16]
  growth at 100 µM: -95%
[17]
  growth at 100 µM: -44%
[18]
  growth at 100 µM: -32%
[19]
  growth at 100 µM: -27%
[20]
  GI50: 0.288 µM
  growth at 0.01 µM: 98%
  CC50: 3.63 µM
  TGI: 1.07 µM
[21]
  GI50: 0.468 µM
  growth at 0.01 µM: 100%
  CC50: 4.79 µM
  TGI: 1.78 µM
[22]
  GI50: 2 µM
  LC50: 26.3 µM
  growth at 0.01 µM: 88%
  TGI: 5.89 µM
[23]
  GI50: 0.324 µM
  LC50: 4.07 µM
  growth at 0.01 µM: 106%
  TGI: 1 µM
[24]
  GI50: 0.603 µM
  growth at 0.01 µM: 102%
  CC50: 4.9 µM
  TGI: 1.91 µM
[25]
  GI50: 0.0372 µM
  growth at 0.01 µM: 94%
  CC50: 93.3 µM
  TGI: 0.331 µM
[26]
  GI50: 0.0776 µM
  growth at 0.01 µM: 94%
  CC50: > 100 µM
  TGI: 1.38 µM
[27]
  GI50: 1.09 µM
  TGI: 2.37 µM
  CC50: 5.17 µM
[28]
  GI50: 4.7 µM
  TGI: 22.8 µM
  CC50: > 100 µM
[29]
  GI50: 2.86 µM
  TGI: 14.6 µM
  CC50: > 100 µM
[30]
  growth at 0.1 µM: 92%
[31]
  growth at 0.1 µM: 103%
[32]
  growth at 0.1 µM: 94%
[33]
  GI50: 0.437 µM
  LC50: 5.13 µM
  growth at 0.01 µM: 106%
  TGI: 1.55 µM
